Laboratory results reported in patent US20230181608A1, “NUTRIENT COMPOSITION, FOOD INCLUDING THE SAME AND USE OF THE NUTRIENT COMPOSITION” (Heilongjiang Feihe Dairy Co., Ltd., priority 2021, published 2023).

Experiments:
Format in all cases: cell-based, newborn rats and mice
[1] = test system: oligodendrocyte precursor cells (MBP positive cells); assay: number of MBP positive cells after 30 DIVs (OPC/OL maturation), primary mixed culture of neurons and OL; details: for effect on the number of MBP positive cells (maturation of oligodendrocyte precursor cells), in words: in comparison with the blank control group / with the components alone
Experimental: (§1) All experiments were approved by ethics, and the primary mixed culture of neurons and OL were carried out according to the following steps. Briefly, the forebrain of newborn rats and mice were dissociated with trypsin (Trypsin EDTA 1X, PAN BIOTECH) at 37° C. for 20 minutes. After addition of Dulbecco modified Eagle medium (DMEM, PAN BIOTECH) containing DNAase I Grade II (0.1 mg/ml, PAN BIOTECH) and 10% fetal bovine serum (FCS, GIBCO), the reaction was stopped. The cells were mechanically separated three times through a 10 ml pipette, and then centrifuged at 4° C. under 515 g for 10 minutes.
(§2) Living cells were inoculated in 96-well plates (20000/well), which were pre-coated with poly-L-lysine (BD Falcon) and laminin (Sigma). The culture medium consists of Neurobasal (GIBCO) added with 2% B27 (GIBCO), 2 mM L-glutamine (L Glu, PAN BIOTECH), 2% P/S solution (PAN BIOTECH), 1% FCS and 10 ng/ml platelet-derived growth factor (PDGF-AA, PAN BIOTECH). The 96-well plates are stored in a humidified incubator, at a temperature of 37° C. and with an environment of air (95%) - CO2 (5%).
(§3) A same number of cells were placed on 48-well plates, and then incubated for 12, 18 or 30 DIVs. Half of the medium were replaced every other day. A mixture or separate nutrition were added to the fresh medium (the nutrient composition prepared above, containing 2′-FL, choline and/or milk fat global membrane).
(§4) After 12, 18 and 30 DIVs, the cells were fixed with a cold mixture of 95% ethanol and acetic acid (5%) for 5 minutes. The non-specific sites were then blocked for 15 minutes at room temperature with a phosphate buffered saline (PBS) solution containing 0.1% saponin (Sigma) and 1% FCS (GIBCO).
(§5) At 30 DIVs, nerve cells were co-incubated with mouse monoclonal antibody MBP (dilution: 1/1000, Novus, NBP1-05204) and neurofilament protein antibody (dilution: 1/500, Sigma, N4142) for 2 hours. Then a secondary goat anti-mouse antibody (dilution: 1/800, Sigma, SAB4600042) and a secondary goat anti-rabbit antibody (dilution: 1/400, SIGMA, SAB4600084) were used to co-incubate at room temperature for 1 h.
(§6) ImageXpress equipped with LED lights (360/480/565 for excitation and 460/535/620 for emission) is used for 20× amplification. All images are acquired using the same settings.
At 30 DIVs, the maturity of OL was estimated by calculating the number of MBP positive cells (average number of cells per imge, per well) and the average surface area of MBP positive cells at 30 DIVs ([…], per image, per well).
(§7) Cells were inoculated on a 96-well plate and cultured for a certain period of time. Half of the culture medium was replaced every other day. Varying concentrations of mixed or separate 2′-FL mixtures were added to the special culture medium for fresh primary cells (added on day 12, 18 and 30, respectively). 6 replicas for each sample. […] The blank control group, positive control group and sample intervention group were compared, respectively. The effects of milk fat global membrane, 2′-FL and choline, alone or in mixture, on OPC population, OL maturation and differentiation, myelin formation and neurite growth was determined by immunohistochemistry (MBP, NF, A2B5). See Table 2 below for specific experimental dosage.
In order to measure the effect of mixed nutrition or single nutrition treatment on OPC cell maturation, we evaluated the number of MBP positive cells after 30DIVs.

[2] = test system: oligodendrocyte precursor cells (MAG positive cells); assay: number of MAG positive cells after 18 DIVs (OPC differentiation/myelination), primary mixed culture of neurons and OL; details: for effect on the number of MAG positive cells (myelination of oligodendrocyte precursor cells), in words: in comparison with the blank control group / with the components alone
Experimental: as §1, §2, §3, §4
as §5, with “18” for “30”, “MAG” for “MBP”, “1/400, Millipore, MAB1567)” for “1/1000, Novus, NBP1-05204)”, “h.” for “hours.”, “[…]” for “anti-mouse”, “1/400,” for “1/800,”
as §6
The differentiation of OPC into OL was evaluated by counting the number of MAG positive cells in cell culture. The results were expressed as the average number of cells per image and per well. The morphological maturity of MAG positive cells were assessed by measuring the average surface area of MAG positive cells in 18 DIV wells ([…]/image/well).
as §7
In order to measure the effect of mixed nutrition or single nutrition treatment on OPC cell myelination, we evaluated the number of positive cells labelled MAG after 18 DIVs.

[3] = test system: oligodendrocyte precursor cells (A2B5 positive cells); assay: number of A2B5 positive cells (number of OPCs) after 12 DIVs, primary mixed culture of neurons and OL; details: for effect on the number of A2B5 positive cells (proliferation of oligodendrocyte precursor cells), in words: in comparison with the blank control group / with the components alone
Experimental: All experiments were approved by ethics, and the primary mixed culture of neurons and OL were carried out according to the following steps. Briefly, the forebrain of newborn rats and mice were dissociated with trypsin (Trypsin EDTA 1X, PAN BIOTECH) at 37° C. for 20 minutes. After addition of Dulbecco modified Eagle medium (DMEM, PAN BIOTECH) containing DNAase I Grade II (0.1 mg/ml, PAN BIOTECH) and 10% fetal bovine serum (FCS, GIBCO), the reaction was stopped. The cells were mechanically separated three times through a 10 ml pipette, and then centrifuged at 4° C. under 515 g for 10 minutes. Living cells were inoculated in 96-well plates (20000/well), which were pre-coated with poly-L-lysine (BD Falcon) and laminin (Sigma). The culture medium consists of Neurobasal (GIBCO) added with 2% B27 (GIBCO), 2 mM L-glutamine (L Glu, PAN BIOTECH), 2% P/S solution (PAN BIOTECH), 1% FCS and 10 ng/ml platelet-derived growth factor (PDGF-AA, PAN BIOTECH). The 96-well plates are stored in a humidified incubator, at a temperature of 37° C. and with an environment of air (95%) - CO2 (5%). […] Half of the medium were replaced every other day. A mixture or separate nutrition were added to the fresh medium (the nutrient composition prepared above, containing 2′-FL, choline and/or milk fat global membrane). After 12, 18 and 30 DIVs, the cells were fixed with a cold mixture of 95% ethanol and acetic acid (5%) for 5 minutes. The non-specific sites were then blocked for 15 minutes at room temperature with a phosphate buffered saline (PBS) solution containing 0.1% saponin (Sigma) and 1% FCS (GIBCO). […] Finally, a secondary goat anti-rabbit antibody (diluted 1/400, SIGMA, SAB460084) was used to co-incubate at room temperature for 1 h. ImageXpress equipped with LED lights (360/480/565 for excitation and 460/535/620 for emission) is used for 20× amplification. All images are acquired using the same settings. […] Cells were inoculated on a 96-well plate and cultured for a certain period of time. Half of the culture medium was replaced every other day. […] The blank control group, positive control group and sample intervention group were compared, respectively. […] See Table 2 below for specific experimental dosage.

[4] = high dosage: 2′-FL 20, milk fat globule membrane 55, choline 6.5 mg/ml (those present)
[5] = low dosage: 2′-FL 0.2, milk fat globule membrane 0.55, choline 0.065 mg/ml (those present)
[6] = medium dosage: 2′-FL 2, milk fat globule membrane 5.5, choline 0.65 mg/ml (those present)
[7] = low dosage: milk fat globule membrane 0.55 or choline 0.065 mg/ml

Row | Structure (SMILES) | increase of the number of MBP positive cells relative to the blank control group (Cell Experiment Example 1) [1, 4] | number of MBP positive cells (mean±standard deviation) [1, 4] | effect on the number of MBP positive cells (maturation of oligodendrocyte precursor cells), in words [1] | number of MBP positive cells (mean±standard deviation) [1, 5] | increase of the number of MBP positive cells relative to the blank control group (Cell Experiment Example 1) [1, 6] | number of MBP positive cells (mean±standard deviation) [1, 6] | increase of the number of MAG positive cells relative to the blank control group (Cell Experiment Example 1) [2, 4] | number of MAG positive cells (mean±standard deviation) [2, 4] | effect on the number of MAG positive cells (myelination of oligodendrocyte precursor cells), in words [2] | number of MAG positive cells (mean±standard deviation) [2, 5] | increase of the number of MAG positive cells relative to the blank control group (Cell Experiment Example 1) [2, 6] | number of MAG positive cells (mean±standard deviation) [2, 6] | increase of the number of A2B5 positive cells relative to the blank control group (Cell Experiment Example 1) [3, 4] | number of A2B5 positive cells (mean±standard deviation) [3, 4] | effect on the number of A2B5 positive cells (proliferation of oligodendrocyte precursor cells), in words [3] | number of A2B5 positive cells (mean±standard deviation) [3, 5] | increase of the number of A2B5 positive cells relative to the blank control group (Cell Experiment Example 1) [3, 6] | number of A2B5 positive cells (mean±standard deviation) [3, 6] | further results
1 | CC(C)CCC[C@@H](C)[C@H]1CC[C@H]2[C@@H]3CCC4=CC(=NO)CC[C@]4(C)[C@H]3CC[C@]12C [Olesoxime] | – | – | – | – | – | – | – | – | – | – | – | – | – | – | – | – | – | – | number of MBP positive cells (mean±standard deviation) ([1]; positive control, 300 nM): 124.00±3.61; number of MAG positive cells (mean±standard deviation) ([2]; positive control, 300 nM): 87.00±4.36; number of A2B5 positive cells (mean±standard deviation) ([3]; positive control, 300 nM): 171.33±3.51
2 | CC1O[C@@H](OC2[C@H](O[C@@H]3C(CO)O[C@H](O)C(O)[C@@H]3O)OC(CO)[C@H](O)[C@H]2O)C(O)[C@H](O)[C@@H]1O (stereo partly drawn) [2′-FL, 2′-fucosyl lactose] | 20.67 | 83.00±5.29 | can increase the number of MBP positive cells | 104.00±4.58 | 42.34 | 104.67±5.03 * * | 21.33 | 62.00±4.00 | could increase the number of MAG positive cells | 54.00±6.08 | 35.66 | 76.33±4.51 | 18.33 | 135.00±6.08 | may increase the number of A2B5 positive cells | 151.33±4.73 | 39.33 | 156.00 ±5.57 | –
3 | C[N+](C)(C)CCO.[Cl-] [choline, choline chloride] | 5.67 | 68.00±2.65 | can increase the number of MBP positive cells | 113.33±5.69 | 71.34 | 133.67±4.16 | 40.66 | 81.33±3.21 | could increase the number of MAG positive cells | 66.33±6.03 | 53.33 | 94.00±4.58 | -9 | 107.67±6.03 | may increase the number of A2B5 positive cells | 167.33±3.51 | 109 | 225.67±5.03 | increase of the number of MBP positive cells relative to the blank control group (Cell Experiment Example 1) [1, 7]: 51; increase of the number of MAG positive cells relative to the blank control group (Cell Experiment Example 1) [2, 7]: 25.66; increase of the number of A2B5 positive cells relative to the blank control group (Cell Experiment Example 1) [3, 7]: 50.66
